Results published in US9695155B2, “Herbicidal substituted pyrimidinyloxy benzene compounds” (E. I. DU PONT DE NEMOURS AND COMPANY, priority 2013, dated 2017).

Key:
giant foxtail [1] = test: Test C postemergence; format: in vivo, Setaria faberii; conditions: for Plant response rating (0 to 100), Foxtail, Giant: postemergence; for Plant response rating, Foxtail, Giant: Postemergence, scale 0 to 100 (0 no effect, 100 complete control)
Method in brief: (§1)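 Greenhouse herbicide screen. Pre: seeded loam/sand, sprayed at planting. Post: 1–4 leaf plants (2–18 cm) in peat-based mix. Formulation: solvent mixture + surfactant, non-phytotoxic. Readout: visual % control vs untreated, 13–15 d; dash = not tested.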

waterhemp = test: Test C postemergence; format: in vivo, Amaranthus rudis; conditions: for Plant response rating (0 to 100), Waterhemp: postemergence; for Plant response rating, Waterhemp: Postemergence, scale 0 to 100 (0 no effect, 100 complete control)
Method in brief: as §1

Italian ryegrass = test: Test C postemergence; format: in vivo, Lolium multiflorum; conditions: for Plant response rating (0 to 100), Ryegrass, Italian: postemergence; for Plant response rating, Ryegrass, Italian: Postemergence, scale 0 to 100 (0 no effect, 100 complete control)
Method in brief: as §1

corn = test: Test C postemergence; format: in vivo, Zea mays; conditions: for Plant response rating (0 to 100), Corn: postemergence; for Plant response rating, Corn: Postemergence, scale 0 to 100 (0 no effect, 100 complete control)
Method in brief: as §1

chickweed = test: Test C postemergence; format: in vivo, Stellaria media; conditions: for Plant response rating (0 to 100), Chickweed: postemergence; for Plant response rating, Chickweed: Postemergence, scale 0 to 100 (0 no effect, 100 complete control)
Method in brief: as §1

blackgrass = test: Test C postemergence; format: in vivo, Alopecurus myosuroides; conditions: for Plant response rating (0 to 100), Blackgrass: postemergence; for Plant response rating, Blackgrass: Postemergence, scale 0 to 100 (0 no effect, 100 complete control)
Method in brief: as §1

giant foxtail [2] = test: Test A preemergence; format: in vivo, Setaria faberii; conditions: for Plant response rating, Foxtail, Giant: 125 g ai/ha, 0 to 100 scale where 0 is no effect and 100 is complete control; for Foxtail, Giant plant response rating: 500 g ai/ha, 0 to 100 scale, 0 no effect, 100 complete control, approx. 10 days
Method in brief: (§2)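 Injury scores run from 0, no effect, to 100, complete control, judged by eye against untreated plants roughly 10 days after treatment. Chemicals carried a surfactant in a non-phytotoxic solvent and went onto loam–sand soil preemergence or onto one- to two-leaf seedlings postemergence.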

large (Lg) crabgrass [3] = test: Test A preemergence; format: in vivo, Digitaria sanguinalis; conditions: for Plant response rating, Crabgrass, Large: 125 g ai/ha, 0 to 100 scale where 0 is no effect and 100 is complete control; for Crabgrass, Large plant response rating: 500 g ai/ha, 0 to 100 scale, 0 no effect, 100 complete control, approx. 10 days
Method in brief: as §2

yellow nutsedge = test: Test C postemergence; format: in vivo, Cyperus esculentus; conditions: for Plant response rating (0 to 100), Nutsedge, Yellow: postemergence; for Plant response rating, Nutsedge, Yellow: Postemergence, scale 0 to 100 (0 no effect, 100 complete control)
Method in brief: as §1

wild oat = test: Test C postemergence; format: in vivo, Avena fatua; conditions: for Plant response rating (0 to 100), Oat, Wild: postemergence; for Plant response rating, Oat, Wild: Postemergence, scale 0 to 100 (0 no effect, 100 complete control)
Method in brief: as §1

velvetleaf = test: Test A preemergence; format: in vivo, Abutilon theophrasti; conditions: for Plant response rating, Velvetleaf: 125 g ai/ha, 0 to 100 scale where 0 is no effect and 100 is complete control; for Velvetleaf plant response rating: 500 g ai/ha, 0 to 100 scale, 0 no effect, 100 complete control, approx. 10 days
Method in brief: as §2

morningglory [4] = test: Test A preemergence; format: in vivo, Ipomoea spp.; conditions: for Plant response rating, Morningglory: 125 g ai/ha, 0 to 100 scale where 0 is no effect and 100 is complete control; for Morningglory plant response rating: 500 g ai/ha, 0 to 100 scale, 0 no effect, 100 complete control, approx. 10 days
Method in brief: as §2

large (Lg) crabgrass [5] = test: Test C postemergence; format: in vivo, Digitaria sanguinalis; conditions: for Plant response rating (0 to 100), Crabgrass, Large: postemergence; for Plant response rating, Crabgrass, Large: Postemergence, scale 0 to 100 (0 no effect, 100 complete control)
Method in brief: as §1

johnsongrass = test: Test C postemergence; format: in vivo, Sorghum halepense; conditions: for Plant response rating (0 to 100), Johnsongrass: postemergence; for Plant response rating, Johnsongrass: Postemergence, scale 0 to 100 (0 no effect, 100 complete control)
Method in brief: as §1

morningglory [6] = test: Test A postemergence; format: in vivo, Ipomoea spp.
Method in brief: as §2

[7] = 125 g ai/ha, 0 to 100 scale where 0 is no effect and 100 is complete control

N#Cc1cccc(Oc2ncc(Br)cn2)c1-n1cc(Br)cn1 [Compound 57]
10: Plant response rating, Foxtail, Giant (giant foxtail [1]; 31 g ai/ha, 13 to 15 days) | Plant response rating, Foxtail, Giant (giant foxtail [1]; 62 g ai/ha) | Plant response rating (0 to 100), Ryegrass, Italian (Italian ryegrass; 125 g ai/ha) | Plant response rating, Corn (corn; 31 g ai/ha, 13 to 15 days) | Plant response rating, Blackgrass (blackgrass; 31 g ai/ha, 13 to 15 days) | Plant response rating, Oat, Wild (wild oat; 31 g ai/ha, 13 to 15 days) | Plant response rating (0 to 100), Crabgrass, Large (large (Lg) crabgrass [5]; 125 g ai/ha)
90: Plant response rating (0 to 100), Waterhemp (waterhemp; 250 g ai/ha) | Plant response rating, Crabgrass, Large (large (Lg) crabgrass [3]) | Plant response rating, Morningglory (morningglory [6]; [7])
80: Plant response rating (0 to 100), Waterhemp (waterhemp; 125 g ai/ha) | Plant response rating, Waterhemp (waterhemp; 62 g ai/ha) | Plant response rating (0 to 100), Chickweed (chickweed; 125 g ai/ha) | Plant response rating (0 to 100), Chickweed (chickweed; 250 g ai/ha) | Plant response rating, Foxtail, Giant (giant foxtail [2]) | Plant response rating, Morningglory (morningglory [6]; 500 g ai/ha, 0 to 100 scale, 0 no effect, 100 complete control)
30: Plant response rating (0 to 100), Foxtail, Giant (giant foxtail [1]; 250 g ai/ha) | Plant response rating (0 to 100), Blackgrass (blackgrass; 125 g ai/ha) | Plant response rating (0 to 100), Blackgrass (blackgrass; 250 g ai/ha) | Plant response rating (0 to 100), Oat, Wild (wild oat; 125 g ai/ha) | Plant response rating (0 to 100), Crabgrass, Large (large (Lg) crabgrass [5]; 250 g ai/ha)
35: Plant response rating (0 to 100), Oat, Wild (wild oat; 250 g ai/ha)
20: Plant response rating (0 to 100), Corn (corn; 125 g ai/ha) | Plant response rating (0 to 100), Corn (corn; 250 g ai/ha) | Plant response rating (0 to 100), Johnsongrass (johnsongrass; 250 g ai/ha)
40: Plant response rating, Velvetleaf (velvetleaf) | Morningglory plant response rating (morningglory [4])
100: Foxtail, Giant plant response rating (giant foxtail [2]) | Crabgrass, Large plant response rating (large (Lg) crabgrass [3]) | Velvetleaf plant response rating (velvetleaf)
5: Plant response rating, Ryegrass, Italian (Italian ryegrass; 62 g ai/ha) | Plant response rating (0 to 100), Nutsedge, Yellow (yellow nutsedge; 125 g ai/ha) | Plant response rating, Nutsedge, Yellow (yellow nutsedge; 31 g ai/ha, 13 to 15 days) | Plant response rating, Nutsedge, Yellow (yellow nutsedge; 62 g ai/ha) | Plant response rating, Crabgrass, Large (large (Lg) crabgrass [5]; 31 g ai/ha, 13 to 15 days) | Plant response rating, Crabgrass, Large (large (Lg) crabgrass [5]; 62 g ai/ha) | Plant response rating (0 to 100), Johnsongrass (johnsongrass; 125 g ai/ha) | Plant response rating, Johnsongrass (johnsongrass; 31 g ai/ha, 13 to 15 days) | Plant response rating, Johnsongrass (johnsongrass; 62 g ai/ha)
75: Plant response rating, Waterhemp (waterhemp; 31 g ai/ha, 13 to 15 days)
15: Plant response rating (0 to 100), Foxtail, Giant (giant foxtail [1]; 125 g ai/ha) | Plant response rating (0 to 100), Ryegrass, Italian (Italian ryegrass; 250 g ai/ha) | Plant response rating, Corn (corn; 62 g ai/ha) | Plant response rating, Blackgrass (blackgrass; 62 g ai/ha) | Plant response rating (0 to 100), Nutsedge, Yellow (yellow nutsedge; 250 g ai/ha) | Plant response rating, Oat, Wild (wild oat; 62 g ai/ha)
50: Plant response rating, Chickweed (chickweed; 31 g ai/ha, 13 to 15 days) | Plant response rating, Chickweed (chickweed; 62 g ai/ha)
0: Plant response rating, Ryegrass, Italian (Italian ryegrass; 31 g ai/ha, 13 to 15 days) | Plant response rating, Morningglory (morningglory [4])

N#Cc1cccc(Oc2ncc(Cl)cn2)c1-n1cc(Cl)cn1 [Compound 72]
50: Plant response rating, Chickweed (chickweed; 31 g ai/ha, 13 to 15 days)
15: Plant response rating (0 to 100), Corn (corn; 125 g ai/ha) | Plant response rating (0 to 100), Blackgrass (blackgrass; 125 g ai/ha) | Plant response rating (0 to 100), Blackgrass (blackgrass; 250 g ai/ha)
10: Plant response rating (0 to 100), Foxtail, Giant (giant foxtail [1]; 125 g ai/ha) | Plant response rating, Foxtail, Giant (giant foxtail [1]; 31 g ai/ha, 13 to 15 days) | Plant response rating, Foxtail, Giant (giant foxtail [1]; 62 g ai/ha) | Plant response rating (0 to 100), Ryegrass, Italian (Italian ryegrass; 125 g ai/ha) | Plant response rating (0 to 100), Ryegrass, Italian (Italian ryegrass; 250 g ai/ha) | Plant response rating, Corn (corn; 62 g ai/ha) | Plant response rating, Blackgrass (blackgrass; 31 g ai/ha, 13 to 15 days) | Plant response rating, Blackgrass (blackgrass; 62 g ai/ha) | Plant response rating (0 to 100), Nutsedge, Yellow (yellow nutsedge; 250 g ai/ha) | Plant response rating, Crabgrass, Large (large (Lg) crabgrass [5]; 62 g ai/ha)
55: Plant response rating (0 to 100), Crabgrass, Large (large (Lg) crabgrass [5]; 125 g ai/ha)
0: Plant response rating (0 to 100), Nutsedge, Yellow (yellow nutsedge; 125 g ai/ha) | Plant response rating, Nutsedge, Yellow (yellow nutsedge; 31 g ai/ha, 13 to 15 days) | Plant response rating, Nutsedge, Yellow (yellow nutsedge; 62 g ai/ha) | Plant response rating, Johnsongrass (johnsongrass; 31 g ai/ha, 13 to 15 days)
75: Plant response rating (0 to 100), Waterhemp (waterhemp; 125 g ai/ha) | Plant response rating, Waterhemp (waterhemp; 31 g ai/ha, 13 to 15 days) | Plant response rating, Waterhemp (waterhemp; 62 g ai/ha)
80: Plant response rating (0 to 100), Chickweed (chickweed; 125 g ai/ha) | Plant response rating (0 to 100), Chickweed (chickweed; 250 g ai/ha) | Plant response rating, Morningglory (morningglory [4])
5: Plant response rating, Ryegrass, Italian (Italian ryegrass; 31 g ai/ha, 13 to 15 days) | Plant response rating, Ryegrass, Italian (Italian ryegrass; 62 g ai/ha) | Plant response rating, Corn (corn; 31 g ai/ha, 13 to 15 days) | Plant response rating, Oat, Wild (wild oat; 31 g ai/ha, 13 to 15 days) | Plant response rating, Oat, Wild (wild oat; 62 g ai/ha) | Plant response rating, Crabgrass, Large (large (Lg) crabgrass [5]; 31 g ai/ha, 13 to 15 days) | Plant response rating (0 to 100), Johnsongrass (johnsongrass; 125 g ai/ha) | Plant response rating, Johnsongrass (johnsongrass; 62 g ai/ha)
20: Plant response rating (0 to 100), Corn (corn; 250 g ai/ha)
30: Plant response rating (0 to 100), Oat, Wild (wild oat; 125 g ai/ha)
95: Plant response rating (0 to 100), Waterhemp (waterhemp; 250 g ai/ha)
25: Plant response rating (0 to 100), Johnsongrass (johnsongrass; 250 g ai/ha)
100: Plant response rating, Foxtail, Giant (giant foxtail [2]) | Foxtail, Giant plant response rating (giant foxtail [2]) | Plant response rating, Crabgrass, Large (large (Lg) crabgrass [3]) | Crabgrass, Large plant response rating (large (Lg) crabgrass [3]) | Velvetleaf plant response rating (velvetleaf) | Morningglory plant response rating (morningglory [4]) | Plant response rating, Morningglory (morningglory [6]; 500 g ai/ha, 0 to 100 scale where 0 is no effect and 100 is complete control)
90: Plant response rating, Velvetleaf (velvetleaf) | Plant response rating, Morningglory (morningglory [6]; [7])
60: Plant response rating (0 to 100), Crabgrass, Large (large (Lg) crabgrass [5]; 250 g ai/ha)
35: Plant response rating (0 to 100), Oat, Wild (wild oat; 250 g ai/ha)
65: Plant response rating (0 to 100), Foxtail, Giant (giant foxtail [1]; 250 g ai/ha) | Plant response rating, Chickweed (chickweed; 62 g ai/ha)
